Laboratory results published in PubChem BioAssay (NCI).
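The compound was tested at five concentrations on cells cultured in 96-well plates, with a 48-hour exposure period. TGI marks complete inhibition of growth.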

Legend:
Experiment in all cases: NCI-60 cell line screen, 48 h
786-0 renal = test system: 786-0 renal
A498 renal = test system: A498 renal
A549 NSCLC = test system: A549 NSCLC
ACHN renal = test system: ACHN renal
CCRF-CEM leukemia = test system: CCRF-CEM leukemia
COLO 205 colon = test system: COLO 205 colon
DLD-1 colon = test system: DLD-1 colon
DMS 114 small cell lung = test system: DMS 114 small cell lung
DMS 273 small cell lung = test system: DMS 273 small cell lung
EKVX NSCLC = test system: EKVX NSCLC
HCC-2998 colon = test system: HCC-2998 colon
HCT-116 colon = test system: HCT-116 colon
HCT-15 colon = test system: HCT-15 colon
HL-60(TB) leukemia = test system: HL-60(TB) leukemia
HOP-18 NSCLC = test system: HOP-18 NSCLC
HOP-92 NSCLC = test system: HOP-92 NSCLC
HT29 colon = test system: HT29 colon
IGROV1 ovarian = test system: IGROV1 ovarian
K-562 leukemia = test system: K-562 leukemia
KM12 colon = test system: KM12 colon
KM20L2 colon = test system: KM20L2 colon
LXFL 529 NSCLC = test system: LXFL 529 NSCLC
M14 melanoma = test system: M14 melanoma
M19-MEL melanoma = test system: M19-MEL melanoma
MALME-3M melanoma = test system: MALME-3M melanoma
MOLT-4 leukemia = test system: MOLT-4 leukemia
NCI-H226 lung = test system: NCI-H226 lung
NCI-H23 lung = test system: NCI-H23 lung
NCI-H460 lung = test system: NCI-H460 lung
NCI-H522 lung = test system: NCI-H522 lung
OVCAR-3 ovarian = test system: OVCAR-3 ovarian
OVCAR-4 ovarian = test system: OVCAR-4 ovarian
OVCAR-5 ovarian = test system: OVCAR-5 ovarian
RPMI-8226 leukemia = test system: RPMI-8226 leukemia
RXF 393 renal = test system: RXF 393 renal
SF-268 CNS = test system: SF-268 CNS
SF-295 CNS = test system: SF-295 CNS
SF-539 CNS = test system: SF-539 CNS
SK-MEL-2 melanoma = test system: SK-MEL-2 melanoma
SK-MEL-28 melanoma = test system: SK-MEL-28 melanoma
SK-MEL-5 melanoma = test system: SK-MEL-5 melanoma
SK-OV-3 ovarian = test system: SK-OV-3 ovarian
SN12C renal = test system: SN12C renal
SNB-75 CNS = test system: SNB-75 CNS
SNB-78 CNS = test system: SNB-78 CNS
SR leukemia = test system: SR leukemia
SW-620 colon = test system: SW-620 colon
TK-10 renal = test system: TK-10 renal
U251 CNS = test system: U251 CNS
UACC-257 melanoma = test system: UACC-257 melanoma
UACC-62 melanoma = test system: UACC-62 melanoma
UO-31 renal = test system: UO-31 renal
CAKI-1 renal = test system: CAKI-1 renal
HOP-62 NSCLC = test system: HOP-62 NSCLC
LOX IMVI melanoma = test system: LOX IMVI melanoma
OVCAR-8 ovarian = test system: OVCAR-8 ovarian
SNB-19 CNS = test system: SNB-19 CNS

Compound: CC(N)CC(=O)O (configuration not stated)
- TGI (786-0 renal): > 5000 µM
- TGI (A498 renal): > 5000 µM
- TGI (A549 NSCLC): > 5000 µM
- TGI (ACHN renal): > 5000 µM
- TGI (CCRF-CEM leukemia): > 5000 µM
- TGI (COLO 205 colon): > 5000 µM
- TGI (DLD-1 colon): > 5000 µM
- TGI (DMS 114 small cell lung): > 5000 µM
- TGI (DMS 273 small cell lung): > 5000 µM
- TGI (EKVX NSCLC): > 5000 µM
- TGI (HCC-2998 colon): > 5000 µM
- TGI (HCT-116 colon): > 5000 µM
- TGI (HCT-15 colon): > 5000 µM
- TGI (HL-60(TB) leukemia): > 5000 µM
- TGI (HOP-18 NSCLC): > 5000 µM
- TGI (HOP-92 NSCLC): > 5000 µM
- TGI (HT29 colon): > 5000 µM
- TGI (IGROV1 ovarian): > 5000 µM
- TGI (K-562 leukemia): > 5000 µM
- TGI (KM12 colon): > 5000 µM
- TGI (KM20L2 colon): > 5000 µM
- TGI (LXFL 529 NSCLC): > 5000 µM
- TGI (M14 melanoma): > 5000 µM
- TGI (M19-MEL melanoma): > 5000 µM
- TGI (MALME-3M melanoma): > 5000 µM
- TGI (MOLT-4 leukemia): > 5000 µM
- TGI (NCI-H226 lung): > 5000 µM
- TGI (NCI-H23 lung): > 5000 µM
- TGI (NCI-H460 lung): > 5000 µM
- TGI (NCI-H522 lung): > 5000 µM
- TGI (OVCAR-3 ovarian): > 5000 µM
- TGI (OVCAR-4 ovarian): > 5000 µM
- TGI (OVCAR-5 ovarian): > 5000 µM
- TGI (RPMI-8226 leukemia): > 5000 µM
- TGI (RXF 393 renal): > 5000 µM
- TGI (SF-268 CNS): > 5000 µM
- TGI (SF-295 CNS): > 5000 µM
- TGI (SF-539 CNS): > 5000 µM
- TGI (SK-MEL-2 melanoma): > 5000 µM
- TGI (SK-MEL-28 melanoma): > 5000 µM
- TGI (SK-MEL-5 melanoma): > 5000 µM
- TGI (SK-OV-3 ovarian): > 5000 µM
- TGI (SN12C renal): > 5000 µM
- TGI (SNB-75 CNS): > 5000 µM
- TGI (SNB-78 CNS): > 5000 µM
- TGI (SR leukemia): > 5000 µM
- TGI (SW-620 colon): > 5000 µM
- TGI (TK-10 renal): > 5000 µM
- TGI (U251 CNS): > 5000 µM
- TGI (UACC-257 melanoma): > 5000 µM
- TGI (UACC-62 melanoma): > 5000 µM
- TGI (UO-31 renal): > 5000 µM

Compound: O=c1ccc2ccccc2c2ccccc12
- TGI (786-0 renal): 10.1 µM
- TGI (A498 renal): 52.2 µM
- TGI (A549 NSCLC): 31.8 µM
- TGI (ACHN renal): 12.4 µM
- TGI (CAKI-1 renal): 8.55 µM
- TGI (CCRF-CEM leukemia): 11.4 µM
- TGI (COLO 205 colon): 18.3 µM
- TGI (DLD-1 colon): 14.7 µM
- TGI (DMS 114 small cell lung): 4.7 µM
- TGI (DMS 273 small cell lung): 14.3 µM
- TGI (EKVX NSCLC): 35.8 µM
- TGI (HCC-2998 colon): 21.4 µM
- TGI (HCT-116 colon): 11.4 µM
- TGI (HCT-15 colon): 5.64 µM
- TGI (HL-60(TB) leukemia): 9.97 µM
- TGI (HOP-18 NSCLC): 14.9 µM
- TGI (HOP-62 NSCLC): 11.2 µM
- TGI (HT29 colon): 6.78 µM
- TGI (IGROV1 ovarian): 19 µM
- TGI (K-562 leukemia): 33.1 µM
- TGI (KM12 colon): 5.76 µM
- TGI (KM20L2 colon): 3.85 µM
- TGI (LOX IMVI melanoma): 3.99 µM
- TGI (LXFL 529 NSCLC): 10.4 µM
- TGI (M14 melanoma): 6.52 µM
- TGI (M19-MEL melanoma): 10.7 µM
- TGI (MALME-3M melanoma): 22.3 µM
- TGI (MOLT-4 leukemia): 20.3 µM
- TGI (NCI-H226 lung): 15.1 µM
- TGI (NCI-H23 lung): 6.33 µM
- TGI (NCI-H460 lung): 13.8 µM
- TGI (NCI-H522 lung): 11.2 µM
- TGI (OVCAR-3 ovarian): 11.5 µM
- TGI (OVCAR-4 ovarian): 20.4 µM
- TGI (OVCAR-5 ovarian): 6.7 µM
- TGI (OVCAR-8 ovarian): 4.61 µM
- TGI (RPMI-8226 leukemia): 7.83 µM
- TGI (SF-268 CNS): 6.19 µM
- TGI (SF-295 CNS): 13.3 µM
- TGI (SF-539 CNS): 4.09 µM
- TGI (SK-MEL-2 melanoma): 16.2 µM
- TGI (SK-MEL-28 melanoma): 16.8 µM
- TGI (SK-MEL-5 melanoma): 12.7 µM
- TGI (SK-OV-3 ovarian): 13 µM
- TGI (SN12C renal): 6.44 µM
- TGI (SNB-19 CNS): 8.73 µM
- TGI (SNB-75 CNS): 10.8 µM
- TGI (SNB-78 CNS): 17.7 µM
- TGI (SR leukemia): 4.66 µM
- TGI (SW-620 colon): 10.9 µM
- TGI (TK-10 renal): 28 µM
- TGI (U251 CNS): 4.93 µM
- TGI (UACC-257 melanoma): 16.6 µM
- TGI (UACC-62 melanoma): 7.12 µM
- TGI (UO-31 renal): 13.8 µM
